Measured values as given in patent US5225436A, “Aryl substituted naphthalene derivatives” (Schering Corporation, priority 1991, dated 1993).
Where a name gives a salt, the structure may show the parent alone. Read-outs that look alike come from different tables or passages of the source.

What was measured:
[1] = system: SRS-A / leukotriene release from antigen-challenged, sensitized guinea pig lung; experiment: Inhibition of SRS-A (leukotriene) release from antigen-challenged, sensitized guinea pig lung; type: cell-based; conditions: Cavia porcellus
In short: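 Chopped sensitized guinea pig lung fragments (~400 mg) preincubated with or without compound 12 min at 37° C in Tyrode's with 10 mM cysteine, then challenged with 20 μg/ml ovalbumin (final) for 15 min. Ethanol-extracted supernatant leukotrienes measured by [3H]LTC4 RIA (55% LTD4 cross-reactivity); % inhibition versus the same lung without compound.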

[2] = system: anaphylactic bronchospasm (antigen-induced SRS-A mediated bronchoconstriction); experiment: Inhibition of anaphylactic bronchospasm in sensitized guinea pigs; type: in vivo, guinea pig; conditions: Cavia porcellus, iv, 0.25 h, Dose 10 mpk, read-out: % Inhibition of anaphylactic bronchospasm
Method: The anti-allergy method of this invention is identified by tests which measure a compound's inhibition of anaphylactic bronchospams-in sensitized guinea pigs having antigen-induced SRS-A mediated bronchoconstriction. Allergic bronchospams was measured in actively sensitized guinea pigs by a modification of the procedure of Konzett and Rossler, Arch. Exptl. Pathol. Pharmakol., 194, pp. 71-74 (1940). Male Hartley guinea pigs were sensitized with 5 mg ovalbumin injected ip and 5 mg injected sc in 1 ml saline on day 1 and 5 mg ovalbumin injected ip on day 4. The sensitized animals were used 3-4 weeks later. To measure anaphylactic bronchospasm, sensitized guinea pigs were fasted overnight and the following morning were anesthetized with 0.9 ml/kp ip dialurethane. The trachea and jugular vein were cannulated and the animals were ventilated by a Harvard rodent respirator. A side arm to the tracheal cannula was connected to a Harvard pressure transducer to obtain a continuous measure of intratracheal pressure. An increase in intratracheal pressure was taken as a measure of bronchoconstriction. Each guinea pig was injected iv with 1 mg/kg propranolol, 5 mg/kg indomethacin and 2 mg/kg mepyramine given together in a volume of […]. Fifteen minutes later, the animals were challenged with antigen (0.5 percent ovalbumin) delivered as an aerosol generated from a DeVilbiss Model 65 ultrasonic nebulizer and delivered through the tracheal cannula for 30 seconds. Bronchoconstriction was measured as the peak increase in intratracheal pressure occurring within 15 minutes after antigen challenge.

[3] = system: arachidonic acid induced mouse ear inflammation; experiment: Arachidonic acid mouse ear test; type: in vivo, mouse (Charles River, female, CD, (SD) BR); conditions: 1 mg/ear, topical, 30 minutes prior to AA challenge
Method: Charles River, female, CD, (SD) BR mice, 6 weeks old, are caged 8/group and allowed to acclimate 1-3 weeks prior to use.
Arachidonic acid (AA) is dissolved in reagent grade acetone (2 mg/.01 ml) and stored at -20° C. for a maximum of 1 week prior to use. Inflammatory reactions are induced by applying […] of AA to both surfaces of one ear ([…] total).
Test drugs are dissolved in either reagent grade acetone or aqueous ethanol (only if insoluble in acetone) at the same doses selected by Opas et al., Fed. Proc. 43, Abstract 2983, p. 1927 (1984) and Young et al., J. Invest. Dermatol. 82, pp. 367-371 (1984). These doses are employed to ensure maximum responses and to overcome any difference in topical absorption which could occur with any drug applied in an aqueous ethanol vehicle. The test drug is applied 30 minutes prior to challenge with AA.
The severity of the inflammation is measured as a function of increased ear weight. A 6 mm punch biopsy is removed 1 hour after AA challenge and weighed to the nearest 0.1 mg. Mean ± standard error and all possible comparisons are made via Duncan's Multiple Range Statistic.

5-lipoxygenase = biological target: T1, 5-lipoxygenase (Mus musculus, UniProt P48999); experiment: 5-Lipoxygenase assay (murine mast cell clone MC-9); type: cell-based; conditions: MC9, 5 min, MC-9 cell
T1 construct: The IL-3-dependent murine mast cell clone, MC-9, was used to test the effects; endogenous in cells; host or cells: MC-9 (IL-3-dependent murine mast cell clone)
T1 sequence (P48999 1-674): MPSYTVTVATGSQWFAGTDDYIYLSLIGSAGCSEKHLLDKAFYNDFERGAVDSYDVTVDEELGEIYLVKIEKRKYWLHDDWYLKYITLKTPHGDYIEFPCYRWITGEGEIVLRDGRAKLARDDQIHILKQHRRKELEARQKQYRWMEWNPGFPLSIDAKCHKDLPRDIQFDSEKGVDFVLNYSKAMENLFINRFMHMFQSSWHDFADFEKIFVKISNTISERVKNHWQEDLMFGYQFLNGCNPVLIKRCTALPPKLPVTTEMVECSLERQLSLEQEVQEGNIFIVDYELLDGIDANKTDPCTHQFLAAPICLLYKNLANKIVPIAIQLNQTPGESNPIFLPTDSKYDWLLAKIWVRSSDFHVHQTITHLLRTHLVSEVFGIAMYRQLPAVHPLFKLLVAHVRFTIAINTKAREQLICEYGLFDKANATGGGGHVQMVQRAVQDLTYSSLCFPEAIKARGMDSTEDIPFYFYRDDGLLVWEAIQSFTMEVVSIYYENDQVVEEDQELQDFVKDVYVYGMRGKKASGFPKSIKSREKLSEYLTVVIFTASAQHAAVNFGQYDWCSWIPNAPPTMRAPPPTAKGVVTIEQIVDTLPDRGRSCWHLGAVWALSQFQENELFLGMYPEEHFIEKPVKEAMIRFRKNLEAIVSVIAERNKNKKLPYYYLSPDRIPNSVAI
Method: The IL-3-dependent murine mast cell clone, MC-9, was used to test the effects of representative compounds of the invention on lipoxygenase activity. The MC-9 cell line was grown in suspension culture (0.4 to 1.2×10^6 cells/ml) in RPMI 1640 medium (Gibco) with 10% fetal bovine serum (Hyclone) and 2-5% conconavalin-A conditioned supernatant (Musch et. al., (1985) Prostagandins 29, 405-4307. Cells were harvested, washed twice by centrifugation, and resuspended in a Ca^++ -free HEPES buffer (25 mM HEPES, 125 mM NaCl, 2.5 mM KCl 0.7 mM MgCl2, 0.5 mM EGTA and 10 mM glucose at pH 7.4).
MC-9 cells (0.39 ml at 7.5×10^6 cells/ml) were preincubated with dimethylsulfoxide (DMSO) vehicle with or without test compound (1 ul) for 4 minutes then incubated for 5 minutes with [^14 C] arachidonic acid (Amersham, 59 Ci/mole) at a 9 uM final concentration, and A23187 (Calbiochem) at a 1 uM final concentration was added in 10 ul of water:ethanol (9:1). The reaction was stopped by addition of methanol (0.4 ml), and cellular debris was removed by centrifugation. Aliquots (250 ul) of the incubations were run on a Waters two pump HPLC system fitted with a Waters C18, 10 u 8×100 mm u-Bondapak radial compression column and C18 "Guard Pak". The column was initially eluted at 3 ml/min with water:methanol:acetic acid (67:33:0.08) containing 1 mM EDTA adjusted to pH 6.0 with ammonium hydroxide (Pump A). At 4 minutes, a linear gradient to reach 100% methanol (Pump B) at 9 minutes was established. Between 13 and 14 minutes, methanol was exchanged for the initial eluting solvent and by 19 minutes the column had been reequilibrated for the next sample. The effluent was analyzed by a continuous flow radioactivity monitor (model ROMONA-D) interfaced with a Hewlett Packard Lab Automation System for quantitation of radioactive products. These were predominantly leukotriene C4 (LTC4) which eluted at 6 minutes, and 5-hydroxyeicosatetraenoic acid (5-HETE) which eluted at 11 minutes (Musch et. al., supra).

Row | Structure (SMILES) | inhibition at 5 µM (5-lipoxygenase; read-out: % Inhibition 5-HETE) | inhibition at 5 µM (5-lipoxygenase; read-out: % Inhibition LTC4) | inhibition at 50 µM (5-lipoxygenase; read-out: % Inhibition 5-HETE) | inhibition at 50 µM (5-lipoxygenase; read-out: % Inhibition LTC4) | inhibition at 2 µM (5-lipoxygenase; read-out: % Inhibition 5-HETE) | inhibition at 2 µM (5-lipoxygenase; read-out: % Inhibition LTC4) | inhibition at 1 µM (5-lipoxygenase; read-out: % Inhibition 5-HETE) | inhibition at 1 µM (5-lipoxygenase; read-out: % Inhibition LTC4) | inhibition at 50 µM [1] | inhibition in vivo at 10 mg/kg [2] | inhibition (increased ear weight) [3] | inhibition (increased ear weight) ([3]; listed as 3-(3,4-dihydroxyphenyl)-6,8-dihydroxy-4,4-dimethyl-1(4H)-naphthalenone) | inhibition at 10 µM ([1]; Dose 10 μm)
1 | COc1cc(OC)c2c(c1)C(C)(C)C(c1ccc(OC)c(OC)c1)CC2=O (centres unmarked) [3-(3,4-dimethoxyphenyl)-6,8-dimethoxy-4,4-dimethyl-3 4-dihydro-1(2H)-naphthalenone] | 29% | 36% | 100% | 99% |  |  |  |  | 62% | 0% | 50% |  | 
2 | CC1(C)C(c2ccc(O)c(O)c2)=CC(=O)c2c(O)cc(O)cc21 [trisodium salt of 3(3 4-dihydroxy-phenyl)-6,8-dihydroxy-4,4-dimethyl-1(4H)-naphthalenone] |  |  |  |  |  |  |  |  |  |  | 90% |  | 
3 | COc1cc(OC)c2c(c1)C(C)(C)C(c1ccc(OC)c(OC)c1)CC2=NO (centres unmarked) | 100% | 65% |  |  |  |  | 28% | 26% | 75% | 50% |  |  | 35%
4 | CC(=O)Oc1cc(OC(C)=O)c2c(c1)C(C)(C)C(c1ccc(OC(C)=O)c(OC(C)=O)c1)=CC2=O [3-(3,4-diacetyloxyphenyl)-6,8-diacetyloxy-4,4-dimethyl-1(4H)-naphthalenone] | 53% | 43% |  |  |  |  |  |  | 48% | 7% |  |  | 

Further lines, with some results ahead:

Row | inhibition at 5 µM (5-lipoxygenase; read-out: % Inhibition 5-HETE) | inhibition at 5 µM (5-lipoxygenase; read-out: % Inhibition LTC4) | inhibition at 50 µM (5-lipoxygenase; read-out: % Inhibition 5-HETE) | inhibition at 50 µM (5-lipoxygenase; read-out: % Inhibition LTC4) | inhibition at 2 µM (5-lipoxygenase; read-out: % Inhibition 5-HETE) | inhibition at 2 µM (5-lipoxygenase; read-out: % Inhibition LTC4) | inhibition at 1 µM (5-lipoxygenase; read-out: % Inhibition 5-HETE) | inhibition at 1 µM (5-lipoxygenase; read-out: % Inhibition LTC4) | Structure (SMILES) | inhibition at 50 µM [1] | inhibition in vivo at 10 mg/kg [2] | inhibition (increased ear weight) [3] | inhibition (increased ear weight) ([3]; listed as 3-(3,4-dihydroxyphenyl)-6,8-dihydroxy-4,4-dimethyl-1(4H)-naphthalenone) | inhibition at 10 µM ([1]; Dose 10 μm)
5 | 76% |  |  |  | 52% | 33% |  |  | CC1(C)C(c2ccc(O)c(O)c2)=CC(=O)c2c(O)cc(O)cc21 [3-(3,4-dihydroxyphenyl)-6,8-dihydroxy-4,4-dimethyl-1(4H)-naphthalenone] | 77% | 17% |  | 60% | 
6 | 43% |  | 95% |  |  |  |  |  | CC1(C)C(c2ccc(O)c(O)c2)=C(O)C(=O)c2c(O)cc(O)cc21 [3-(3,4-dihydroxyphenyl)-2,6,8-trihydroxy-4,4-dimethyl-1(4H)-naphthalenone] | 81% |  | 68% |  | 
7 | 60% |  |  |  |  |  |  |  | COc1cc(O)c2c(c1)C(C)(C)C(c1ccc(O)c(O)c1)=CC2=O [3-(3,4-dihydroxyphenyl)-8-hydroxy-6-methoxy-4,4-dimethyl-1(4H)-naphthalenone] | 43% |  | 65% |  | 
8 | 9% | 17% | 95% | 100% |  |  |  |  | COc1cc(OC)c2c(c1)C(C)(C)C(c1ccc(OC)c(OC)c1)=CC2=O | 55% | 36% |  |  | 
